# Test results published in patent publication US20110206647A1, “Modulation of Angiogenesis” (ABT Holding Company, priority 2010, published 2011).
# What was measured:
# MultiStem = assay: RT-PCR analysis of pro-angiogenic gene expression in treated MultiStem; assay type: cell-based, human
# Description: FIG. 7—Treatment of MultiStem with Cytomix increases the expression of pro-angiogenic molecules in vitro. MultiStem was grown for three days and then treated with Cytomix (10 ng/mL TNF-α, IL-1β and IFNγ) for 24, 48, 72 hrs. The cells were subsequently collected for RT-PCR analysis for pro-angiogenic gene expression.
# FIGS. 10A-C—Pre-treatment of MultiStem with prostaglandin F or latanoprost (prostaglandin F agonist) increases expression of the angiogenic factors by MultiStem in vitro. […] MultiStem was treated with a dose range of Latanoprost for 24, 48 or 72 hours. Gene expression of pro-angiogenic factors was then analyzed by RT-PCR. Gene expression of KITLG (A), HGF and VEGF (B), and Il-8 (C) were all increased.
# [1] = test system: human umbilical vein endothelial cell (HUVEC); assay: in vitro HUVEC angiogenesis (tube formation) assay; assay type: cell-based; settings: for induction of angiogenesis by factor added to basal media: MultiStem basal media, IL-8 4000 pg/ml, CXCL5 150 pg/ml
# Description: Growth factor-reduced Matrigel (BD Bioscience, San Jose, Calif.) was thawed on ice at 4° C. overnight and used at a concentration of 6.0-6.5 mg/ml, diluted on ice using ice-cold 1×PBS. Four-hundred microliters of Matrigel was distributed into the inner wells of a 24-well tissue culture plate and allowed to solidify for 1 hour at 37° C. Addition of Matrigel was done on ice and outer wells of plate were filled with 1 ml of 1×PBS.
# HUVECs were harvested according to the following protocol: Cells were washed with 1×PBS followed by a brief rinse with 0.25× trypsin-EDTA and then quenched using the 1×PBS (with residual serum) wash. Cells were resuspended in endothelial cell basal media (EBM) and counted. HUVECs were added to the CM, other experimental conditions and controls at a concentration of 55,000 cells/ml/well. Each sample and control was assayed in triplicate. Plates were incubated for 6 hours or 18 hours at 5% CO2 and 37° C. to allow for tube formation. Four fields per well were analyzed for a total of 12 fields. Pictures were taken at using 10× objective. Angiogenesis was scored by counting the number of tubes formed between cells. Results are expressed as average tubes formed per field +/−SEM.
# To test whether MultiStem secretes factors which promote angiogenesis, an in vitro angiogenesis assay using conditioned media from MultiStem was utilized. MultiStem were plated under normal conditions for 24 hours. The cells were then transferred to serum-free conditions to generate conditioned media for four days. This media was then tested for angiogenic activity in an in vitro tube formation assay. […] HUVECs were plated in conditioned media, basal media or endothelial growth media for 18 hours. Angiogenesis was measured as the average number of tubes formed per field of view for each condition. In the absence of any additional factors, the presence of serum alone in basal media can induce angiogenesis. Therefore, serum-free media was used for all the experiments.
# [2] = MultiStem treated 24, 48, 72 hrs
# [3] = MultiStem treated 24, 48 or 72 hours
molecule,measurement,setting,value
CC(C)OC(=O)CCC/C=C\C[C@@H]1[C@@H](CC[C@@H](O)CCc2ccccc2)[C@H](O)C[C@@H]1O [latanoprost],HGF gene expression,MultiStem; [2],increased
same,IL-8 gene expression,MultiStem; [2],increased
same,VEGF (VEGF A) gene expression,MultiStem; [3],increased
same,KITLG gene expression,"MultiStem; MultiStem treated 24, 48 or 72 hours, dose range",increased
same,"angiogenesis, CM from untreated cells with agent added after collection vs CM alone",[1]; 1 uM added to media after collection,equal levels
same,"tube formation, basal media with added agent","[1]; 1 uM in basal media, no cells",did no induce significant tube formation
same,"HUVEC tube formation, conditioned media from treated MultiStem vs untreated","[1]; MultiStem cultured three days with 1 uM, serum-free CM",increased modestly
CXCL5: angiogenic cytokine added to MultiStem basal media (150 pg/ml),induction of angiogenesis by factor added to basal media,[1],not sufficient to induce angiogenesis
IL-8: interleukin 8 added to MultiStem basal media (4000 pg/ml),induction of angiogenesis by factor added to basal media,[1],not sufficient to induce angiogenesis
prostaglandin F,VEGF (VEGF A) gene expression,MultiStem; [3],increased
